In PubChem BioAssay (NCI):
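Results reflect a 48-hour exposure of cells in 96-well plates to compound at five concentrations. At the GI50, growth is halved. TGI is the concentration that stops growth completely.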

How the values were obtained:
Assay in all cases: growth of human tumour cells (NCI), 48 h
786-0 renal = system: 786-0 renal
HCT-15 colon = system: HCT-15 colon
HOP-62 NSCLC = system: HOP-62 NSCLC
K-562 leukemia = system: K-562 leukemia
LOX IMVI melanoma = system: LOX IMVI melanoma
NCI-H226 lung = system: NCI-H226 lung
NCI-H460 lung = system: NCI-H460 lung
OVCAR-8 ovarian = system: OVCAR-8 ovarian
SK-MEL-2 melanoma = system: SK-MEL-2 melanoma
SW-620 colon = system: SW-620 colon

Compound: Oc1cccc(Cn2c(-c3cccc(O)c3O)nc3ccccc32)c1O
- GI50 (786-0 renal): 1.86 µM
- TGI (786-0 renal): 14.1 µM
- GI50 (HCT-15 colon): 2.08 µM
- TGI (HCT-15 colon): 14.9 µM
- GI50 (HOP-62 NSCLC): 3.77 µM
- TGI (HOP-62 NSCLC): 38.7 µM
- GI50 (K-562 leukemia): 5.56 µM
- TGI (K-562 leukemia): > 100 µM
- GI50 (LOX IMVI melanoma): 2.84 µM
- TGI (LOX IMVI melanoma): 15.3 µM
- GI50 (NCI-H226 lung): 3.95 µM
- TGI (NCI-H226 lung): 21.9 µM
- GI50 (NCI-H460 lung): 3.59 µM
- TGI (NCI-H460 lung): 16.3 µM
- GI50 (OVCAR-8 ovarian): 11.7 µM
- TGI (OVCAR-8 ovarian): 53.1 µM
- GI50 (SK-MEL-2 melanoma): 42 µM
- TGI (SK-MEL-2 melanoma): > 100 µM
- GI50 (SW-620 colon): 6.82 µM
- TGI (SW-620 colon): 60.1 µM

Compound: Cc1ccc(NC(=O)CC/C(CC(=O)c2ccc(Cl)cc2)=N\NC(=O)C(=O)NN)cc1C
- TGI (786-0 renal): > 100 µM
- TGI (HCT-15 colon): > 100 µM
- TGI (HOP-62 NSCLC): > 100 µM
- TGI (K-562 leukemia): > 100 µM
- TGI (LOX IMVI melanoma): > 100 µM
- TGI (NCI-H226 lung): > 100 µM
- TGI (NCI-H460 lung): > 100 µM
- TGI (OVCAR-8 ovarian): > 100 µM
- TGI (SK-MEL-2 melanoma): > 100 µM
- TGI (SW-620 colon): > 100 µM

Compound: CC(=O)O[C@H]1CCC2[C@@H]3CCC4Nc5c(cnn5-c5ccccc5)C[C@]4(C)C3CC[C@@]21C (stereo partly drawn)
- TGI (786-0 renal): 67.5 µM
- TGI (HCT-15 colon): 47.8 µM
- TGI (HOP-62 NSCLC): 95.7 µM
- TGI (K-562 leukemia): 74.3 µM
- TGI (LOX IMVI melanoma): 25.4 µM
- TGI (NCI-H226 lung): 27.8 µM
- TGI (NCI-H460 lung): 42.1 µM
- TGI (OVCAR-8 ovarian): 39.6 µM
- TGI (SK-MEL-2 melanoma): 35.8 µM
- TGI (SW-620 colon): 31.3 µM

Compound: Cc1ccc2c(N/N=C\c3ccco3)cc(C)nc2n1
- GI50 (786-0 renal): 2.25 µM
- TGI (786-0 renal): 6.11 µM
- GI50 (HCT-15 colon): 2.89 µM
- TGI (HCT-15 colon): 12 µM
- GI50 (HOP-62 NSCLC): 10 µM
- TGI (HOP-62 NSCLC): 24.4 µM
- GI50 (K-562 leukemia): 3.02 µM
- TGI (K-562 leukemia): 11.2 µM
- GI50 (LOX IMVI melanoma): 3.76 µM
- TGI (LOX IMVI melanoma): 14 µM
- GI50 (NCI-H226 lung): 20.1 µM
- TGI (NCI-H226 lung): 60.3 µM
- GI50 (NCI-H460 lung): 3.24 µM
- TGI (NCI-H460 lung): 11.8 µM
- GI50 (OVCAR-8 ovarian): 5.7 µM
- TGI (OVCAR-8 ovarian): 24 µM
- GI50 (SK-MEL-2 melanoma): 3.05 µM
- TGI (SK-MEL-2 melanoma): 8.77 µM
- GI50 (SW-620 colon): 3.01 µM
- TGI (SW-620 colon): 11.6 µM

Compound: O=C(NC1CCN(Cc2ccccc2)CC1)c1cc(C(=O)NC2CCN(Cc3ccccc3)CC2)cc(C(=O)NC2CCN(Cc3ccccc3)CC2)c1
- GI50 (786-0 renal): 14.8 µM
- TGI (786-0 renal): > 50 µM
- GI50 (HCT-15 colon): > 50 µM
- TGI (HCT-15 colon): > 50 µM
- GI50 (HOP-62 NSCLC): 9.33 µM
- TGI (HOP-62 NSCLC): 19.7 µM
- GI50 (K-562 leukemia): 2 µM
- TGI (K-562 leukemia): > 50 µM
- GI50 (LOX IMVI melanoma): 1.74 µM
- TGI (LOX IMVI melanoma): 6.94 µM
- GI50 (NCI-H226 lung): 14.7 µM
- TGI (NCI-H226 lung): > 50 µM
- GI50 (NCI-H460 lung): 8.07 µM
- TGI (NCI-H460 lung): 16.9 µM
- GI50 (OVCAR-8 ovarian): 12.7 µM
- TGI (OVCAR-8 ovarian): 43.4 µM
- GI50 (SK-MEL-2 melanoma): 9.02 µM
- TGI (SK-MEL-2 melanoma): 16.9 µM
- GI50 (SW-620 colon): 3.86 µM
- TGI (SW-620 colon): 13 µM

Compound: c1ccc2c(c1)nnn2CNc1ccc(N2CCOCC2)cc1
- TGI (786-0 renal): > 100 µM
- TGI (HCT-15 colon): > 100 µM
- TGI (HOP-62 NSCLC): > 100 µM
- TGI (K-562 leukemia): > 100 µM
- TGI (LOX IMVI melanoma): > 100 µM
- TGI (NCI-H226 lung): > 100 µM
- TGI (NCI-H460 lung): > 100 µM
- TGI (OVCAR-8 ovarian): > 100 µM
- TGI (SK-MEL-2 melanoma): > 100 µM
- TGI (SW-620 colon): > 100 µM

Compound: CC1=C2C(=O)C(C)(C)C=C2C(=O)[C@](C)(O)C12CC2
- TGI (786-0 renal): > 1 µM
- TGI (HCT-15 colon): > 1 µM
- TGI (HOP-62 NSCLC): > 1 µM
- TGI (K-562 leukemia): > 1 µM
- TGI (LOX IMVI melanoma): > 1 µM
- TGI (NCI-H226 lung): > 1 µM
- TGI (NCI-H460 lung): > 1 µM
- TGI (OVCAR-8 ovarian): > 1 µM
- TGI (SK-MEL-2 melanoma): > 1 µM
- TGI (SW-620 colon): > 1 µM

Compound: C/C(=N\NS(=O)(=O)c1ccc(C)cc1)c1c(O)cc(C)oc1=O
- TGI (786-0 renal): > 100 µM
- TGI (HCT-15 colon): > 100 µM
- TGI (HOP-62 NSCLC): > 100 µM
- TGI (K-562 leukemia): > 100 µM
- TGI (LOX IMVI melanoma): > 100 µM
- TGI (NCI-H226 lung): > 100 µM
- TGI (NCI-H460 lung): > 100 µM
- TGI (OVCAR-8 ovarian): > 100 µM
- TGI (SK-MEL-2 melanoma): > 100 µM
- TGI (SW-620 colon): > 100 µM

Compound: c1ccc(/N=C2\c3ccccc3CN2c2ccccn2)nc1
- TGI (786-0 renal): > 100 µM
- TGI (HCT-15 colon): > 100 µM
- TGI (HOP-62 NSCLC): > 100 µM
- TGI (K-562 leukemia): > 100 µM
- TGI (LOX IMVI melanoma): > 100 µM
- TGI (NCI-H226 lung): > 100 µM
- TGI (NCI-H460 lung): > 100 µM
- TGI (OVCAR-8 ovarian): > 100 µM
- TGI (SK-MEL-2 melanoma): > 100 µM
- TGI (SW-620 colon): > 100 µM

Compound: C[C@@H](NC1CCC[C@@H]1O)c1ccccc1 (stereo partly drawn)
- TGI (786-0 renal): > 100 µM
- TGI (HCT-15 colon): > 100 µM
- TGI (HOP-62 NSCLC): > 100 µM
- TGI (K-562 leukemia): > 100 µM
- TGI (LOX IMVI melanoma): > 100 µM
- TGI (NCI-H226 lung): > 100 µM
- TGI (NCI-H460 lung): > 100 µM
- TGI (OVCAR-8 ovarian): > 100 µM
- TGI (SK-MEL-2 melanoma): > 100 µM
- TGI (SW-620 colon): > 100 µM

Compound: O=C(Nc1ccc(Cl)cc1)c1cc2cc(F)ccc2cc1O
- GI50 (786-0 renal): 2.9 µM
- TGI (786-0 renal): > 100 µM
- GI50 (HCT-15 colon): 1.78 µM
- TGI (HCT-15 colon): > 100 µM
- GI50 (HOP-62 NSCLC): 2.01 µM
- TGI (HOP-62 NSCLC): 7.56 µM
- GI50 (K-562 leukemia): 0.491 µM
- TGI (K-562 leukemia): > 100 µM
- GI50 (LOX IMVI melanoma): 2.11 µM
- TGI (LOX IMVI melanoma): 10.7 µM
- GI50 (NCI-H226 lung): 2.5 µM
- TGI (NCI-H226 lung): 7.99 µM
- GI50 (NCI-H460 lung): 0.882 µM
- TGI (NCI-H460 lung): > 100 µM
- GI50 (OVCAR-8 ovarian): 2.93 µM
- TGI (OVCAR-8 ovarian): > 100 µM
- GI50 (SK-MEL-2 melanoma): 0.672 µM
- TGI (SK-MEL-2 melanoma): 2.74 µM
- GI50 (SW-620 colon): 2.49 µM
- TGI (SW-620 colon): > 100 µM

Compound: O=C1CCC2=C3C4CCCCC4C(=O)C4CCCC(OC2C1)C34 (stereo not drawn)
- GI50 (786-0 renal): 2.51 µM
- TGI (786-0 renal): > 29.8 µM
- GI50 (HCT-15 colon): 0.472 µM
- TGI (HCT-15 colon): > 21.7 µM
- GI50 (HOP-62 NSCLC): 2.72 µM
- TGI (HOP-62 NSCLC): 32.8 µM
- GI50 (K-562 leukemia): 0.493 µM
- GI50 (LOX IMVI melanoma): 0.278 µM
- GI50 (NCI-H226 lung): > 41.2 µM
- TGI (NCI-H226 lung): > 78.9 µM
- GI50 (NCI-H460 lung): 0.87 µM
- TGI (NCI-H460 lung): 4.57 µM
- GI50 (OVCAR-8 ovarian): 0.397 µM
- TGI (OVCAR-8 ovarian): 23.7 µM
- GI50 (SK-MEL-2 melanoma): 1.38 µM
- TGI (SK-MEL-2 melanoma): 4.14 µM
- GI50 (SW-620 colon): 0.394 µM
- TGI (SW-620 colon): 3.13 µM
